The conditions of data set [1]: AML trial; cited from earlier work.
Data set [2] in a line: Plasma pharmacokinetics of L-BTZ and Velcade in rats after single dose. It counts as in vivo. Conditions: 0.6 mg/kg, 5 ul/g, plasma BTZ by LC-MS. The method, then:
Plasma concentrations were determined by LC-MS. Compared to Velcade, the circulation time L-BTZ was much longer, which subsequently enhances the therapeutic effect and half-life time in vivo.

Data set [3] concerns NCI-H929 multiple myeloma. Description: Antitumor activity in NCI-H929 multiple myeloma subcutaneous murine xenograft model. Type of data set: in vivo, mice. The settings on record: FIG. 3B. The source says: (3A) anti-tumor effect, (3B) body weight loss, and (3C) survival curves result in vivo.
The conditions of data set [4]: clinical trial for SLE; cited from earlier work.
The subject of another data set is AML murine model. Conditions: cited from earlier work.
Data set [5] is described as follows: BTZ / boronic acid drug loading into liposomes (UV absorption or HPLC). The settings on record: tiron-based liposomes, same drug loading protocol. It counts as physicochemical. On the procedure:
Remote loading of BTZ into liposomes encapsulating calcium ascorbate/calcium acetate. Lipids (DSPC/Chol/mPEG-DSPE 60:35:5 mole/mole) were dissolved in chloroform, dried into a thin film on a round-bottom flask and hydrated in 100 mM calcium ascorbate/50 mM calcium acetate (pH 8). The resulting liposomes were subjected to 5 cycles of freezing and thawing and extrusion through a 100-nm pore size polycarbonate membrane in a Lipex extruder at 65 degree. […] External buffer of the liposomes was exchanged to 130 mM NaCl/10 mM histidine (pH 6) by passing through a Sepharose CL-4B column. […] BTZ was dissolved in a small volume of DMSO and added to the liposomes and incubated under stirring at 20-60 degrees for 10-60 min (e.g., 30 min at 50 degree) to facilitate remote loading. BTZ diffuses into the liposomes and forms a complex with ascorbic acid (BTZ-ASC complex), which is negatively charged and partially precipitates intraliposome with calcium, resulting in stable encapsulation of the BTZ. Finally, unencapsulated BTZ was removed from the liposomes by passing through a Sepharose CL-4B column. BTZ concentration in the L-BTZ was determined by UV absorption or by HPLC. […]
Remote loading of BTZ into liposomes containing ascorbyl palmitate (ASC-C16) and encapsulating calcium acetate. […] BTZ concentration in the L-BTZ was determined by UV absorption or by HPLC. […]

Molecules are shown by their SMILES.

In general, AUC(0-inf) refers to total exposure, with the tail of the curve extrapolated. Low values mean less exposure, high ones more exposure. In general, AUC(0-t) refers to the area under the concentration-time curve up to a stated or last time point. Read a high AUC(0-t) as more exposure. What is called Cmax is the peak of the concentration-time curve. By Tmax is commonly meant the time from dosing to the highest level. What is called half-life is how long it takes for the measured level to halve. The low end stands for fast loss, the high end for slow loss.

With `CC(C)C[C@H](NC(=O)[C@H](Cc1ccccc1)NC(=O)c1cnccn1)B(O)O` [free BTZ, Bortezomib], the “drop out due to neurotoxicity” value in data set [1] was 4/7. For the same compound, in data set [2] (i.v.), the CLss_F was found to be 18.9 mL/min/kg and the Vz_F was 54.22 L/kg. Besides, in data set [2] (rat, iv), the AUC(0-inf) is 864 ng·h/mL, the AUC(0-t) was found to be 322 ng·h/mL, the highest level (Cmax) was 45.4 ng/mL and the Tmax was 0.25 h. The same compound showed a half-life in data set [2] (rat, iv) of 33.1 h. Also, the “body weight loss during treatment” value in data set [3] is on record as “no significant body weight loss”. Further, the “dropped out due to side effects” value in data set [4] was 7/12. For the same compound, the “reaching effective dose (limited by toxicity)” value in the data set with AML murine model is “cannot reach effective dose”.
In the case of `CC(C)C[C@H](NC(=O)CNC(=O)c1cc(Cl)ccc1Cl)B(O)O` [ixazomib], the drug loading entry in data set [5] is recorded as “High drug loading”.
As to `CC(C)C[C@H](NC(=O)[C@@H](NC(=O)c1cccc(-c2ccccc2)n1)[C@@H](C)O)B(O)O` [delanzomib], in data set [5], the drug loading entry is recorded as “High drug loading”.

These data come from patent US20240173374A1, “LIPOSOMAL FORMULATIONS OF BORONIC ACID CONTAINING ACTIVE AGENTS” (Ohio State Innovation Foundation, priority 2021, published 2024).
